Results on one compound are retold here after patent publication US20140315981A1, “STRATEGIES FOR PREVENTION AND/OR TREATMENT OF DISEASES BASED ON CD40 SILENCING” (FUNDACIO INSTITUT D'INVESTIGACIO BIOMEDICA DE BELLVITGE …, priority 2011, published 2014).

What all share (format): in vivo
Assay [1] relates to NZB/W F1 female mice. The assay can be described thus: Survival of NZB/W F1 mice with lupus nephritis under treatment. Particulars: intraperitoneal treatment from six to nine months of age.
Description: Animals NZB/W F1 female mice (Charles River, Spain) were used. […] Mice were housed in a constant temperature room with a 12-hour dark/12-hour light cycle, and were given free access to water and a standard laboratory diet.
(§1) Treatment was given from six to nine old months. Body weight was determined twice a month. Mice were placed in metabolic cages to collect 24-hour urine specimens before treatment, and again at six, seven and eight months. Blood was obtained from the tail vein at the same intervals. At the end of the follow-up, survivor animals were sacrificed and kidney processed for histological studies.
Data are expressed as mean+SE. Overall survival was analyzed by the Kaplan-Meier method. […] All P-values were two-tailed, and a P-value <0.05 was considered significant.
The subject of assay [2] is NZB/W F1 female mice. Put plainly: Anti-DNA antibodies in serum by ELISA, murine lupus nephritis. Particulars: FIG. 2. The method, then: Urinary protein concentration was determined by a commercial kit based on the Ponceau method (BayerDiagnostics, Madrid, Spain). Serum creatinine levels (in milligrams per decilitre) were determined by Jaffés method on an autoanalyzer (Beckman Instruments, Palo Alto, Calif.) at the end of the follow-up. Anti-DNA antibodies levels of anti-DNA antibodies were measured before treatment, and subsequently each month and at sacrifice, using a commercially available ELISA kit (Alpha Diagnostic International, San Antonio, Tex., USA) according to manufacturer's instructions (serum diluted 1:100). This kit is based on a purified dsDNA coated microwell plate. Antibodies to dsDNA are directed against the phosphate-deoxyribose backbone of the DNA molecule. Anti-dsDNA from serum samples bind to extracted nuclear antigen immobilized on microtiter wells. Anti-mouse IgG-HRP conjugate is added, and the colour developed by chromogenic substrate addition. The enzymatic reaction (blue colour) is directly proportional to the amount of the anti-dsDNA in the sample. Kits contain positive and negative controls, and anti-DNA antibodies are estimated in a semi-quantitative way according to the optical density (o.d. 450).
(An ELISA detects its analyte on a solid surface through an enzyme-linked reagent.)

The test system of assay [3] is NZB/W F1 female mice. The assay can be described thus: Renal immunofluorescence of glomerular IgG and C3 deposition, murine lupus nephritis. Particulars: FIG. 7.
Description: Renal immunofluorescence. For analysis of Ig and complement deposition, fluorescent staining of cryosections was used. Five-micrometer cryostat sections were fixed in acetone at −80° C. for 20 minutes, then blocked with 20% normal goat serum and directly stained with FITC-conjugated goat anti-mouse IgG at 1/300 (Sigma-Aldrich). To stain for complement, slides were then sequentially incubated in rat anti-mouse complement C3, at 1/50 (Cedarlane Laboratories Limited), followed by Alexa Fluor 546-conjugated goat anti-rat IgG at 1/1000 (Invitrogen, Molecular Probes). At least 30 glomeruli, visualized and photographed with an immunofluorescence microscope, from each animal were examined in a binded manner. A semiquantitative score of staining intensity and distribution from 0 to 4+ was given, where 0+ denotes no signal; 1+, minimal signal; 2+, low signal; 3+, moderate signal and 4+, strong signal intensity.
The test system of assay [4] is NZB/W F1 female mice. The assay can be described thus: Proteinuria and renal function, murine lupus nephritis. Particulars: vs. control, FIG. 3.
Description: as §1
In assay [5] the test system is NZB/W F1 female mice. Put plainly: Spleen weight and splenocyte B cell populations, murine lupus nephritis. As to conditions: FIG. 9.

For `O=P1(N(CCCl)CCCl)NCCCO1` (centres unmarked) [CYP, cyclophosphamide], the “Cumulative survival analyzed by the Kaplan-Meier method” value in the assay with NZB/W F1 female mice [1] worked out at 100%. The anti-dsDNA titers entry in the assay with NZB/W F1 female mice [2] was “lower”. The “glomerular deposition of C3” value with NZB/W F1 female mice [3] is “more effective in reducing C3 deposition than costimulatory blockade”. For the same compound, the proteinuria entry with NZB/W F1 female mice [4] is “significantly lower”. Also, in the assay on NZB/W F1 female mice [5], the “proportion of B cells in splenocytes” value is “markedly reduced”.
